Source: the kinase profiling compilation of Christmann-Franck et al. (2016)

Columns and labels:
Assay in all cases: radiometric filter-binding kinase assay, Kinase HotSpot
Settings in all cases: compound 0.5 µM; ATP 10 µM
ABL2 (human) = ABL2 (human) (UniProt P42684)
ACVRL1 (human) = ACVRL1 (human) (UniProt P37023)
AKT1 (human) = AKT1 (human) (UniProt P31749)
AURKB (human) = AURKB (human) (UniProt Q96GD4)
BRSK2 (human) = BRSK2 (human) (UniProt Q8IWQ3)
CDK1 CCNA2 (human) = CDK1 CCNA2 (human) (UniProt P06493+P20248)
CDK2 CCNA2 (human) = CDK2 CCNA2 (human) (UniProt P24941+P20248)
CDK4 CCND1 (human) = CDK4 CCND1 (human) (UniProt P24385+P11802)
CHEK2 (human) = CHEK2 (human) (UniProt O96017)
CSK (human) = CSK (human) (UniProt P41240)
CSNK1E (human) = CSNK1E (human) (UniProt P49674)
CSNK1G2 (human) = CSNK1G2 (human) (UniProt P78368)
CSNK2A2 (human) = CSNK2A2 (human) (UniProt P19784)
EPHA2 (human) = EPHA2 (human) (UniProt P29317)
EPHB1 (human) = EPHB1 (human) (UniProt P54762)
FLT3 (human) = FLT3 (human) (UniProt P36888)
FRK (human) = FRK (human) (UniProt P42685)
GRK6 (human) = GRK6 (human) (UniProt P43250)
GSG2 (human) = GSG2 (human) (UniProt Q8TF76)
HIPK4 (human) = HIPK4 (human) (UniProt Q8NE63)
IGF1R (human) = IGF1R (human) (UniProt P08069)
KIT (human) = KIT (human) (UniProt P10721)
LCK (human) = LCK (human) (UniProt P06239)
MAP4K2 (human) = MAP4K2 (human) (UniProt Q12851)
MAPKAPK2 (human) = MAPKAPK2 (human) (UniProt P49137)
MARK1 (human) = MARK1 (human) (UniProt Q9P0L2)
MARK3 (human) = MARK3 (human) (UniProt P27448)
MINK1 (human) = MINK1 (human) (UniProt Q8N4C8)
MKNK2 (human) = MKNK2 (human) (UniProt Q9HBH9)
NEK4 (human) = NEK4 (human) (UniProt P51957)
NTRK2 (human) = NTRK2 (human) (UniProt Q16620)
NUAK2 (human) = NUAK2 (human) (UniProt Q9H093)
OXSR1 (human) = OXSR1 (human) (UniProt O95747)
PIM3 (human) = PIM3 (human) (UniProt Q86V86)
PRKCB1 (human) = PRKCB1 (human) (UniProt P05771)
PRKD1 (human) = PRKD1 (human) (UniProt Q15139)
RPS6KA3 KD1 KD2 (human) = RPS6KA3 KD1 KD2 (human) (UniProt P51812)
STK17A (human) = STK17A (human) (UniProt Q9UEE5)
STK39 (human) = STK39 (human) (UniProt Q9UEW8)
TAOK3 (human) = TAOK3 (human) (UniProt Q9H2K8)
[1] = biological target: TYK2 JH1 catalytic (human) (UniProt P29597)
PIM1 (human) = PIM1 (human) (UniProt P11309)

Chain of MARK1 (human) (Q9P0L2 whole entry, looked up): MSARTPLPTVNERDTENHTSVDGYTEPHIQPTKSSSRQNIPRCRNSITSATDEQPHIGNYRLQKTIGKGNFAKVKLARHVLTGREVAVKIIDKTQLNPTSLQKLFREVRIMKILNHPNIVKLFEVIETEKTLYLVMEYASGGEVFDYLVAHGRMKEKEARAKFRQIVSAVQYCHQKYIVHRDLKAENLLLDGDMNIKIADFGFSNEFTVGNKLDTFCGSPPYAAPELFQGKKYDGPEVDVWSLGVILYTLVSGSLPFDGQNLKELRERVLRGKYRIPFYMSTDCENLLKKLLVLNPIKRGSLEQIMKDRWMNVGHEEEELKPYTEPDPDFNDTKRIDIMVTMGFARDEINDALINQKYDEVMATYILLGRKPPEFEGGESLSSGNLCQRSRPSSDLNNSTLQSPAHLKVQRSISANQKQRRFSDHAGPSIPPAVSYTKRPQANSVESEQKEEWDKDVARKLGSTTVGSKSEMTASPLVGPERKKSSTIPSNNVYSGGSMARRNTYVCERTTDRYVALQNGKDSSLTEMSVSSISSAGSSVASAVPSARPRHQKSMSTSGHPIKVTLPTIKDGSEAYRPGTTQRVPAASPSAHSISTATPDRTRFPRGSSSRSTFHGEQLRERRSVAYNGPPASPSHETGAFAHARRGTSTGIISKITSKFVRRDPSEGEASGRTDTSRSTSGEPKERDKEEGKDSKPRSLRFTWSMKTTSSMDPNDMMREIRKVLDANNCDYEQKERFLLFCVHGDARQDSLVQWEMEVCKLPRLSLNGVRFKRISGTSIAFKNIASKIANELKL
Chain of ACVRL1 (human) (P37023 whole entry, looked up): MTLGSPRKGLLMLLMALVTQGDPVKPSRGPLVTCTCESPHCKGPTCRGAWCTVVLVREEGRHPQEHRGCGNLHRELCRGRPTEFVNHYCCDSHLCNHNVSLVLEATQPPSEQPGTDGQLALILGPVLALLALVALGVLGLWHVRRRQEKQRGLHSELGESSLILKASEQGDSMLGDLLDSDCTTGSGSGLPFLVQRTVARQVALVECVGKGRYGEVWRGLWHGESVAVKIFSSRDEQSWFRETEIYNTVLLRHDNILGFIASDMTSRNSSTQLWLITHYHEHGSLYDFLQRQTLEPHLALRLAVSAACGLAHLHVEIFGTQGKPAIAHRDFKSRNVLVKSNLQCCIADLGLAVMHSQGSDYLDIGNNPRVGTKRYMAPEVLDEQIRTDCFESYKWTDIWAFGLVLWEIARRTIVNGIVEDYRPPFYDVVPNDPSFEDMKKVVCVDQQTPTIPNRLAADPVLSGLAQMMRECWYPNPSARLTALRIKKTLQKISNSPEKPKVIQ
Chain of CHEK2 (human) (O96017 whole entry, looked up): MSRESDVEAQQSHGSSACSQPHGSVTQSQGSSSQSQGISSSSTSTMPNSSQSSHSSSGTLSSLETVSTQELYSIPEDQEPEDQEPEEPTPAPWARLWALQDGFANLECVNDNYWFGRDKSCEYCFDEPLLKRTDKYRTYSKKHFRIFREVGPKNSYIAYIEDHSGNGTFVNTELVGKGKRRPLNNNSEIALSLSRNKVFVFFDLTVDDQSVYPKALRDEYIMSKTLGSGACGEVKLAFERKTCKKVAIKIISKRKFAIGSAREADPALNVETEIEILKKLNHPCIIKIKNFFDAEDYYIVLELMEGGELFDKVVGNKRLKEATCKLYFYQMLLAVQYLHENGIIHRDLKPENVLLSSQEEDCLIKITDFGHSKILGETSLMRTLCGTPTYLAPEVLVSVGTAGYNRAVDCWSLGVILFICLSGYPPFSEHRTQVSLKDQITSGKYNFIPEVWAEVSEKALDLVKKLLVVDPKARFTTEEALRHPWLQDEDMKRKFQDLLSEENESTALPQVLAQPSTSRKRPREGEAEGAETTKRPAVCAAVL
Chain of AKT1 (human) (P31749 whole entry, looked up): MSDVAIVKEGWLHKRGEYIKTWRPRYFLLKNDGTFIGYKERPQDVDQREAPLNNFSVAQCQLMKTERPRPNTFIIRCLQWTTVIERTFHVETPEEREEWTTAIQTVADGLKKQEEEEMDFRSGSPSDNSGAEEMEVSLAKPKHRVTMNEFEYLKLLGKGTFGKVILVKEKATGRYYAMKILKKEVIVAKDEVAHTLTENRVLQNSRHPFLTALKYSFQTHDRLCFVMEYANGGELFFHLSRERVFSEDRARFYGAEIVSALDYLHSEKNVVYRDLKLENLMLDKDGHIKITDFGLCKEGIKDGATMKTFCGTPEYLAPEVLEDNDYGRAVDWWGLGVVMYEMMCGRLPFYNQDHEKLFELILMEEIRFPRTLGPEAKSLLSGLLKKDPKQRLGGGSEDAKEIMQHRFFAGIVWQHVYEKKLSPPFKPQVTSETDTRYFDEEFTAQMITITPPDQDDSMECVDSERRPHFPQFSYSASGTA
Chain of GSG2 (human) (Q8TF76 whole entry, looked up): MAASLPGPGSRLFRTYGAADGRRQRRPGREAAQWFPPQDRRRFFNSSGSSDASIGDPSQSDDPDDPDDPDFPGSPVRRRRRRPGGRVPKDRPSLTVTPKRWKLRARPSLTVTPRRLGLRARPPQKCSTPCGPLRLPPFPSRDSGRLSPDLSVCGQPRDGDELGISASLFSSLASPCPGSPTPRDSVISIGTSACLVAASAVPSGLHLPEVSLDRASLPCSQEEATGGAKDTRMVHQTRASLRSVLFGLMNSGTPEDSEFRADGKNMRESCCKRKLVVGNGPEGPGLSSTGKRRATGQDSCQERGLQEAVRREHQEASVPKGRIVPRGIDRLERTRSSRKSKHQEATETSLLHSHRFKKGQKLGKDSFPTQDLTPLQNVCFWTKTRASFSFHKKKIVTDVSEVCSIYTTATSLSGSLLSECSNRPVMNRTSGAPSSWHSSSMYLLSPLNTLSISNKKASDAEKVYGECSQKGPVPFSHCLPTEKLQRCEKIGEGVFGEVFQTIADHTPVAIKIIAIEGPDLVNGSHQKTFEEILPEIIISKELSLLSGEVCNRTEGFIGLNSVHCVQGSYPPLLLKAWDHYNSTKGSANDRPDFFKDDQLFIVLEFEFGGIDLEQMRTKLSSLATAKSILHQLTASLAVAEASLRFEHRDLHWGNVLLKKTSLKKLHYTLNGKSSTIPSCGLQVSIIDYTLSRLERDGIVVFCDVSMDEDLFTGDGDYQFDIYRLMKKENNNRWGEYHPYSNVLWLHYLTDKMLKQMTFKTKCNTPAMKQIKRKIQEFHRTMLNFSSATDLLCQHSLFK
Chain of NUAK2 (human) (Q9H093 whole entry, looked up): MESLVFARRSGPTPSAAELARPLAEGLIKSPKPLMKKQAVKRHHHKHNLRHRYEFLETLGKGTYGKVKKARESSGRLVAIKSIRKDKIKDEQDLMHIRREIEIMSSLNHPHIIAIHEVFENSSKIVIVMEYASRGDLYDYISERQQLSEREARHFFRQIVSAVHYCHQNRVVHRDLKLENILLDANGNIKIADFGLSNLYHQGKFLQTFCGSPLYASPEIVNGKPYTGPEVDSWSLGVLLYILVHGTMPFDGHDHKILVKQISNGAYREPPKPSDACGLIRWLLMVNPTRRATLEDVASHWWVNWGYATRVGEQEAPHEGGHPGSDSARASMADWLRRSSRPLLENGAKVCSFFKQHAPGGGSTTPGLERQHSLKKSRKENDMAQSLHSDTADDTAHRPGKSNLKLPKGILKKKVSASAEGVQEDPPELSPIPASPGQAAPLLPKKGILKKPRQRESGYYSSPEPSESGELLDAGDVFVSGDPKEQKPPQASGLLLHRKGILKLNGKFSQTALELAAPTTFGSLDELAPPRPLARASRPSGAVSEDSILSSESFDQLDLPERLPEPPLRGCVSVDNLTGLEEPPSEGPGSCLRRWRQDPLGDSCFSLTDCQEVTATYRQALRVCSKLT
Chain of TAOK3 (human) (Q9H2K8 whole entry, looked up): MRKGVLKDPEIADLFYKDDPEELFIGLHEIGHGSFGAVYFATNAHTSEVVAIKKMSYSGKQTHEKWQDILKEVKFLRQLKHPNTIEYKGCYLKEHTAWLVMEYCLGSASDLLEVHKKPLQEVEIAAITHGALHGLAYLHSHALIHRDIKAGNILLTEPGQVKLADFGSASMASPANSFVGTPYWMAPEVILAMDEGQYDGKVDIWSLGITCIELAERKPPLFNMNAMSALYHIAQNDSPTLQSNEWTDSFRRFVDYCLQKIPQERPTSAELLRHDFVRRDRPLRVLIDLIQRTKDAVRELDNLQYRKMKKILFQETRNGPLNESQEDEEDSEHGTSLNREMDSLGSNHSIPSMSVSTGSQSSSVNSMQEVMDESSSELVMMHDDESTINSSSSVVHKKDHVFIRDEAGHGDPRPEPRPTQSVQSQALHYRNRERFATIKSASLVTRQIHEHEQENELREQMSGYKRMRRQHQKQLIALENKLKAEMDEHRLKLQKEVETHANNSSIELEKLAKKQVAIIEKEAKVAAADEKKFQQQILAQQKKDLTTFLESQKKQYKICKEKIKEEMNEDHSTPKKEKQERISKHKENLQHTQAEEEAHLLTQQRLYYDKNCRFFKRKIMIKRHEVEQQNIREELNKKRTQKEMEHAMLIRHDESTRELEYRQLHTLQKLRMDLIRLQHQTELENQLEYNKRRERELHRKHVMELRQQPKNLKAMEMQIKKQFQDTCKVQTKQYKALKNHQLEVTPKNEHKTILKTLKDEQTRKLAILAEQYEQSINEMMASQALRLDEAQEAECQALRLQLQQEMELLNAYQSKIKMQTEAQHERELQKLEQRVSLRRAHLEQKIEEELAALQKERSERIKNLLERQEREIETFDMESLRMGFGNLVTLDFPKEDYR
Chain of CSNK2A2 (human) (P19784 whole entry, looked up): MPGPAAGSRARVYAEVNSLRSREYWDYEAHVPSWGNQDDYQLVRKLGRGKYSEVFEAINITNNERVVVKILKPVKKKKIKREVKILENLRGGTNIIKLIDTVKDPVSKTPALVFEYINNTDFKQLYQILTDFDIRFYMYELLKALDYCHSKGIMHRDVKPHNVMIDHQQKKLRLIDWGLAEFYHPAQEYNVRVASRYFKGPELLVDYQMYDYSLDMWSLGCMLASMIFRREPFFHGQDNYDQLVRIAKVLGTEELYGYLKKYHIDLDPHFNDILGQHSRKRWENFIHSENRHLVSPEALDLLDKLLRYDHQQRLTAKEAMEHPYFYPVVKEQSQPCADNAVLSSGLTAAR

CCN(CC)CCCCN1c2ccccc2Oc2ccc(Cl)cc21 was tested, and the residual activity (ABL2 (human)) was 101%, the residual activity (ACVRL1 (human)) was 102% and the residual activity (AKT1 (human)) was 112%. The residual activity (AURKB (human)) was 94.1%, the residual activity (BRSK2 (human)) was 107% and the residual activity (CDK1 CCNA2 (human)) was 99.3%. For the same molecule, the residual activity (CDK2 CCNA2 (human)) was 98.7%, the residual activity (CDK4 CCND1 (human)) was 107% and the residual activity (CHEK2 (human)) was 105%. The residual activity (CSK (human)) was 99.1%, the residual activity (CSNK1E (human)) was 112% and the residual activity (CSNK1G2 (human)) was 103%. The residual activity (CSNK2A2 (human)) was 94.6%, the residual activity (EPHA2 (human)) was 106% and the residual activity (EPHB1 (human)) was 110%. For the same molecule, the residual activity (FLT3 (human)) was 99%, the residual activity (FRK (human)) was 98.4% and the residual activity (GRK6 (human)) was 88.4%. For the same molecule, the residual activity (GSG2 (human)) was 104%, the residual activity (HIPK4 (human)) was 99.2% and the residual activity (IGF1R (human)) was 89.4%. For the same molecule, the residual activity (KIT (human)) was 107%, the residual activity (LCK (human)) was 94.6% and the residual activity (MAP4K2 (human)) was 110%. For the same molecule, the residual activity (MAPKAPK2 (human)) was 97.2%, the residual activity (MARK1 (human)) was 100% and the residual activity (MARK3 (human)) was 102%. For the same molecule, the residual activity (MINK1 (human)) was 111%, the residual activity (MKNK2 (human)) was 111% and the residual activity (NEK4 (human)) was 110%. The residual activity (NTRK2 (human)) was 102%, the residual activity (NUAK2 (human)) was 90.9% and the residual activity (OXSR1 (human)) was 89.8%. The residual activity (PIM3 (human)) was 37.8%, the residual activity (PRKCB1 (human)) was 101% and the residual activity (PRKD1 (human)) was 101%. For the same molecule, the residual activity (RPS6KA3 KD1 KD2 (human)) was 98.6%, the residual activity (STK17A (human)) was 96.1% and the residual activity (STK39 (human)) was 83.5%. The residual activity (TAOK3 (human)) was 110% and the residual activity [1] was 96.7%.
Molecule Cn1sc(=O)n(Cc2ccccc2)c1=O has a residual activity (ABL2 (human)) of 96.7%, a residual activity (ACVRL1 (human)) of 117% and a residual activity (AKT1 (human)) of 101%. It also gave a residual activity (AURKB (human)) of 102%, a residual activity (BRSK2 (human)) of 99.4% and a residual activity (CDK1 CCNA2 (human)) of 104%. For the same molecule, the residual activity (CDK2 CCNA2 (human)) was 100%, the residual activity (CDK4 CCND1 (human)) was 98.2% and the residual activity (CHEK2 (human)) was 108%. For the same molecule, the residual activity (CSK (human)) was 101%, the residual activity (CSNK1E (human)) was 100% and the residual activity (CSNK1G2 (human)) was 95%. The residual activity (CSNK2A2 (human)) was 98.5%, the residual activity (EPHA2 (human)) was 96.5% and the residual activity (EPHB1 (human)) was 100%. It also gave a residual activity (FLT3 (human)) of 99.1%, a residual activity (FRK (human)) of 112% and a residual activity (GRK6 (human)) of 104%. For the same molecule, the residual activity (GSG2 (human)) was 99%, the residual activity (HIPK4 (human)) was 98.2% and the residual activity (IGF1R (human)) was 97.1%. It also gave a residual activity (KIT (human)) of 101%, a residual activity (LCK (human)) of 103% and a residual activity (MAP4K2 (human)) of 119%. It also gave a residual activity (MAPKAPK2 (human)) of 102%, a residual activity (MARK1 (human)) of 107% and a residual activity (MARK3 (human)) of 97.1%. It also gave a residual activity (MINK1 (human)) of 88.7%, a residual activity (MKNK2 (human)) of 92.1% and a residual activity (NEK4 (human)) of 98%. For the same molecule, the residual activity (NUAK2 (human)) was 97.7%, the residual activity (OXSR1 (human)) was 91.1% and the residual activity (PIM1 (human)) was 93%. The residual activity (PIM3 (human)) was 120%, the residual activity (PRKCB1 (human)) was 110% and the residual activity (PRKD1 (human)) was 101%. For the same molecule, the residual activity (RPS6KA3 KD1 KD2 (human)) was 97.5%, the residual activity (STK17A (human)) was 101% and the residual activity (STK39 (human)) was 97.9%. The residual activity (TAOK3 (human)) was 101% and the residual activity [1] was 96%.
With CC(C)[C@H](CO)Nc1nc(Nc2cc(N)cc(Cl)c2)c2ncn(C(C)C)c2n1 the residual activity (ABL2 (human)) was 21.3%, the residual activity (ACVRL1 (human)) was 109% and the residual activity (AKT1 (human)) was 117%. The residual activity (AURKB (human)) was 87.8%, the residual activity (BRSK2 (human)) was 88.2% and the residual activity (CHEK2 (human)) was 96.3%. It also gave a residual activity (CSK (human)) of 79.3%, a residual activity (CSNK1E (human)) of 82.7% and a residual activity (CSNK1G2 (human)) of 35.2%. It also gave a residual activity (CSNK2A2 (human)) of 106%, a residual activity (EPHA2 (human)) of 67.5% and a residual activity (EPHB1 (human)) of 59.2%. For the same molecule, the residual activity (FLT3 (human)) was 8.35%, the residual activity (FRK (human)) was 70.3% and the residual activity (GRK6 (human)) was 72.1%. For the same molecule, the residual activity (GSG2 (human)) was 99.9%, the residual activity (HIPK4 (human)) was 96.4% and the residual activity (IGF1R (human)) was 73%. It also gave a residual activity (KIT (human)) of 86.2%, a residual activity (LCK (human)) of 70.2% and a residual activity (MAP4K2 (human)) of 90.7%. It also gave a residual activity (MAPKAPK2 (human)) of 92.8%, a residual activity (MARK1 (human)) of 87.5% and a residual activity (MARK3 (human)) of 85.2%. The residual activity (MINK1 (human)) was 94.5%, the residual activity (MKNK2 (human)) was 113% and the residual activity (NEK4 (human)) was 80.2%. For the same molecule, the residual activity (NTRK2 (human)) was 3.04%, the residual activity (NUAK2 (human)) was 81.4% and the residual activity (OXSR1 (human)) was 100%. It also gave a residual activity (PIM1 (human)) of 98%, a residual activity (PIM3 (human)) of 93% and a residual activity (PRKCB1 (human)) of 98.8%. The residual activity (PRKD1 (human)) was 94.2%, the residual activity (RPS6KA3 KD1 KD2 (human)) was 54.1% and the residual activity (STK17A (human)) was 96.3%. For the same molecule, the residual activity (STK39 (human)) was 83.7%, the residual activity (TAOK3 (human)) was 86.9% and the residual activity [1] was 57.9%.
